Consider five molecules from ChEMBL document CHEMBL1128729, “Alpha- and beta-adrenoceptors: from the gene to the clinic. 2. Structure-activity relationships and therapeutic applications” (J Med Chem, 1995).

SMILES strings stand for the structures.

Assay [1] in a line: Activity for Alpha-1 adrenergic receptor was assessed from effect on inhibition of neurotransmission in field-stimulated, reserpine-pretreated guinea pig ileum. It is filed as functional, tissue-based.
The nature of assay [2]: Activity for Alpha-1 adrenergic receptor was assessed from effect on contraction of reserpine-pretreated guinea pig ileum. It is filed as functional, tissue-based.
The target in assay [3] is Beta-2 adrenergic receptor (Cavia porcellus, UniProt Q8K4Z4). Briefly: Activity for Beta-2 adrenergic receptor was assessed from effect on relaxation of guinea pig trachea. It is filed as functional.
Assay [4] in a line: Effective dose for compound on contraction of reserpine-pretreated guinea pig aorta. Format: functional, tissue-based.
Assay [5] in a line: Effective dose for on contraction of rabbit aorta. It is filed as functional, tissue-based.
Assay [6] can be described thus: Effective concentration for inhibition of neurotransmission in field-stimulated, reserpine-pretreated guinea pig ileum. Format: functional, tissue-based.
Assay [7] has as its target Nischarin (Homo sapiens, UniProt Q9Y2I1). Briefly: Binding affinity for imidazoline receptor I-1.
The target of assay [8] is T1, Monoamine oxidase (Homo sapiens, UniProt P21397+P27338).
T1 sequence (P21397 whole entry): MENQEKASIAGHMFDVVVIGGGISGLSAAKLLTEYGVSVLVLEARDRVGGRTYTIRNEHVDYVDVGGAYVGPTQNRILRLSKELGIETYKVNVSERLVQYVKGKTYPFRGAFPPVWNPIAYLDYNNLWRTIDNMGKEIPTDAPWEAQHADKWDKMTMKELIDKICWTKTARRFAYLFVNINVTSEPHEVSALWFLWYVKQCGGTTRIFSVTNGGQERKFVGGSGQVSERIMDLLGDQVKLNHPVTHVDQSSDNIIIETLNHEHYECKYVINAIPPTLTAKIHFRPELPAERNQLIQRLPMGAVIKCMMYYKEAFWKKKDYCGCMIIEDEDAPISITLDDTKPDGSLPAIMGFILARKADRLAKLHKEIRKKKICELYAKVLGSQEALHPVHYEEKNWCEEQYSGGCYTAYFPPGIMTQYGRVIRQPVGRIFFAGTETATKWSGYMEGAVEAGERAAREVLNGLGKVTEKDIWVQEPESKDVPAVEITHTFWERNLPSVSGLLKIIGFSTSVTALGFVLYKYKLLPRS
T1 sequence (P27338 whole entry): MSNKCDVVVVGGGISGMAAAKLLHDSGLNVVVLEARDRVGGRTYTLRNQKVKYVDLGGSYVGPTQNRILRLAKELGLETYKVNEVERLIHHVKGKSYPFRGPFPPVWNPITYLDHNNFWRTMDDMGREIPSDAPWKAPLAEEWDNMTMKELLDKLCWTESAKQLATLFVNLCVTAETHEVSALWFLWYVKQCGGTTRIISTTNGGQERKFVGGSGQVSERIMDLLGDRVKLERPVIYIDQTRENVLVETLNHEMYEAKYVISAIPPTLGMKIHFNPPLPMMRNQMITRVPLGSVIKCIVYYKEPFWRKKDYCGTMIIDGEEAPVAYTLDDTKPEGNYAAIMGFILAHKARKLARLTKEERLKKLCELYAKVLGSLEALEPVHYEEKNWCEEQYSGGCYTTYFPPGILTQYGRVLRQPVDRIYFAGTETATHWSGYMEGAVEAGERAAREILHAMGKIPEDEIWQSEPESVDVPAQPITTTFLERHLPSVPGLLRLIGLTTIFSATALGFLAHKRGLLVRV
Briefly: Binding affinity for imidazoline receptor I-2. Format: protein assay.

For assay [9], the target named is T2, Adrenergic receptor alpha-1 (Rattus norvegicus, UniProt P15823+P23944+P43140).
T2 sequence (P15823 whole entry): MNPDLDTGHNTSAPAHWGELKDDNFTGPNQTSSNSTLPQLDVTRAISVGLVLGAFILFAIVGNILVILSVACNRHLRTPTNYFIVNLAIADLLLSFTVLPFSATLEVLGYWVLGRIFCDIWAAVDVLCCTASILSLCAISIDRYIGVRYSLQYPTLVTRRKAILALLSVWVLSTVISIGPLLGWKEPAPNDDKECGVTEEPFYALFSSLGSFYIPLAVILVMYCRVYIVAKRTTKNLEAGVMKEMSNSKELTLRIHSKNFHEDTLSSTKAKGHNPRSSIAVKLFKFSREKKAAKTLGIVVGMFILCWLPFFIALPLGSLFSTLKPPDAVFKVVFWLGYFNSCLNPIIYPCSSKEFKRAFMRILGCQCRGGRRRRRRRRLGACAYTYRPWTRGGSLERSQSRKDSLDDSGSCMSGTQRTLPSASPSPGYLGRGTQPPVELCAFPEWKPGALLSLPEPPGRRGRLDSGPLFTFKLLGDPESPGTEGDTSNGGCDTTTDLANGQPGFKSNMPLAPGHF
T2 sequence (P23944 whole entry): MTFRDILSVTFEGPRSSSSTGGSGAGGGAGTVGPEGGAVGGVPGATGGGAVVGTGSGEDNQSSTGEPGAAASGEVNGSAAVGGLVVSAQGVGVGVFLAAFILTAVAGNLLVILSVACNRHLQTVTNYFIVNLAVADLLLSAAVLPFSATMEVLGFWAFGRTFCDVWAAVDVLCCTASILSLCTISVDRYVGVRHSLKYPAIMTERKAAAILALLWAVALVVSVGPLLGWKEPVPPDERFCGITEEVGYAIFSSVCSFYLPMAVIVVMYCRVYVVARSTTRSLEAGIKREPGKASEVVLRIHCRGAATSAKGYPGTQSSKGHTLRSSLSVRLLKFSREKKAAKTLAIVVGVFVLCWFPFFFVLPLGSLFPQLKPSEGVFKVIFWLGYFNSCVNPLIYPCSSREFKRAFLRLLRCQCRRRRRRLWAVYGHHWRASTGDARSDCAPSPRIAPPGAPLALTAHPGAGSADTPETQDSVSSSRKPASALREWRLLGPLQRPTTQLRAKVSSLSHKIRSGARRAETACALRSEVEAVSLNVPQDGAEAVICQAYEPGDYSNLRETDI
T2 sequence (P43140 whole entry): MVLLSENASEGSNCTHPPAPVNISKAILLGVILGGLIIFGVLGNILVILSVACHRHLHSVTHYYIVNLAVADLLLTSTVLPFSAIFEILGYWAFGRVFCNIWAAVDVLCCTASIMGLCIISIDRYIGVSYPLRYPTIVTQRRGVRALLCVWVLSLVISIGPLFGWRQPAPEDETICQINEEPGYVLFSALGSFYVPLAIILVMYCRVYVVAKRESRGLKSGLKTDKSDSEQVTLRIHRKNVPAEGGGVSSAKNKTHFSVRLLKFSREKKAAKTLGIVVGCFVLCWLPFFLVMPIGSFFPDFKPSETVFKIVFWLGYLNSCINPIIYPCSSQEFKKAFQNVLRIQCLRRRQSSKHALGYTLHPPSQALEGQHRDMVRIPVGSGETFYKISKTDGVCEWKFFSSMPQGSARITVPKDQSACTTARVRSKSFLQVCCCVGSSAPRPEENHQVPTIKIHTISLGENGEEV
Briefly: Effective dose for contraction of reserpine-pretreated rat vas deferens. Format: functional.

Assay [10] can be described thus: Effective dose for inhibition of neurotransmission in field-stimulated, reserpine-pretreated guinea pig ileum. Format: functional, tissue-based.
Assay [11] can be described thus: Effective dose for contraction of rabbit aorta. Format: functional, tissue-based.
Assay [12] can be described thus: Effective dose for contraction of reserpine-pretreated guinea pig aorta. It is filed as functional, tissue-based.

Chain of Beta-2 adrenergic receptor (Q8K4Z4 whole entry): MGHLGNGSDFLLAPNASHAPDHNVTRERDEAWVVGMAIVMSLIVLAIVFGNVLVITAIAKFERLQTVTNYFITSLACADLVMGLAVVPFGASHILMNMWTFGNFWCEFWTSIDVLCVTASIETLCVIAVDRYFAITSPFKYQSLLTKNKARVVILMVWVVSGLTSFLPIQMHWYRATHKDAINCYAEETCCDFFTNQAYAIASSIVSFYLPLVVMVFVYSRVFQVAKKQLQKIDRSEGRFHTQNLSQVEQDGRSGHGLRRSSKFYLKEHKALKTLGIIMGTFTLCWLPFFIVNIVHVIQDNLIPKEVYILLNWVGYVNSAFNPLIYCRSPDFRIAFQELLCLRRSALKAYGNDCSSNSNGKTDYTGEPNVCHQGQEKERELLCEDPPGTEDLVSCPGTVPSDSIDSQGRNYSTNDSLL
Chain of Nischarin (Q9Y2I1 whole entry): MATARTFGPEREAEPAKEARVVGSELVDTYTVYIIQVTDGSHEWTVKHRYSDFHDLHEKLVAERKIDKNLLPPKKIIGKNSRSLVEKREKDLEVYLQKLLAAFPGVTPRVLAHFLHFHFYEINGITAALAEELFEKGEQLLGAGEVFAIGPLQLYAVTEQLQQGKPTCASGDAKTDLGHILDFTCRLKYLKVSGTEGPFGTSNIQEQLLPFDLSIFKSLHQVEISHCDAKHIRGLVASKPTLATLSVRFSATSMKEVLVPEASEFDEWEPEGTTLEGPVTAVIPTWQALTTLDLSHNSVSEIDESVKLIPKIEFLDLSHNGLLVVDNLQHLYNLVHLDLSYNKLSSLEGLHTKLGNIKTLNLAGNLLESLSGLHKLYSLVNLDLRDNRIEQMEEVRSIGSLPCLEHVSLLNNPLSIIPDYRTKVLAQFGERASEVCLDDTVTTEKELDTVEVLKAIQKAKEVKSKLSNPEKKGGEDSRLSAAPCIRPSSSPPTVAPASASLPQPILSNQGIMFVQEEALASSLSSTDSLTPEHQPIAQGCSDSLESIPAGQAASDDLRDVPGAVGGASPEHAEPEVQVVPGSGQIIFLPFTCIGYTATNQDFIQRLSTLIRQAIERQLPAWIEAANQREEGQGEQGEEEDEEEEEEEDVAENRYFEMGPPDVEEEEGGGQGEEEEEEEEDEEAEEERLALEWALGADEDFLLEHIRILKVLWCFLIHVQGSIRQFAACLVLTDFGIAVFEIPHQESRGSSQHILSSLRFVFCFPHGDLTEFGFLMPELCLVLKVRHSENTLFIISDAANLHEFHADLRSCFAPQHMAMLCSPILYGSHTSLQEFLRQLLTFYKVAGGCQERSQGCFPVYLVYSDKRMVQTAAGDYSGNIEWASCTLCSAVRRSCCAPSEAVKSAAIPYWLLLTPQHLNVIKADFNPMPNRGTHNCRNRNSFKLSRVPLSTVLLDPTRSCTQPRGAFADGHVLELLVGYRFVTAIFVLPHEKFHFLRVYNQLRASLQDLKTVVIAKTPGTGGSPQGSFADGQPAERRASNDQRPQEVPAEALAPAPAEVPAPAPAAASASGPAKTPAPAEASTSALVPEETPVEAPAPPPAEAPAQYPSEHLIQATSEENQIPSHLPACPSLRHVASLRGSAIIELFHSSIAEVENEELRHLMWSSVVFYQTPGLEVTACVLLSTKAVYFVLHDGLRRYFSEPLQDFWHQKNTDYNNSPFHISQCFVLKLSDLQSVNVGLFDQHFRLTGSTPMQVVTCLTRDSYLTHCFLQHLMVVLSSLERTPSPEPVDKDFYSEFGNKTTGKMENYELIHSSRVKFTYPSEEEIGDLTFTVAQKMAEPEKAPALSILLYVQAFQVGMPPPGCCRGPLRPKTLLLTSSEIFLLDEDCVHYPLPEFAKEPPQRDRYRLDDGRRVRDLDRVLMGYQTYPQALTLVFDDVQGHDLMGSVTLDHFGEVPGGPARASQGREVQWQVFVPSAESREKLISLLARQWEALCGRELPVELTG

As for `C[C@@H](N)[C@@H](O)c1ccc(O)c(O)c1`, the EC50 was 10000 nM in assay [1] and 46800 nM in assay [2].
`NCC(O)c1ccc(O)c(O)c1` (single isomer, unassigned) [NOREPINEPHRINE]: the EC50 turned out to be 30000 nM in assay [3], 12000 nM in assay [4], 2000 nM in assay [5] and 14500 nM in assay [6].
For the molecule `Clc1cccc(Cl)c1NC1=NCCN1` [CLONIDINE], the results for the Ki in assay [7] and in [8] were less than 10 nM and more than 100 nM, respectively.
Turning to `C[C@H](N)[C@H](O)c1ccc(O)c(O)c1` [LEVONORDEFRIN], the EC50 in [9] came to 776 nM; in assay [6] it was 19 nM.
As to `NC[C@H](O)c1ccc(O)c(O)c1` [NOREPINEPHRINE], the EC50 was determined as 30 nM in [10], 213 nM in [3], 6.6 nM in assay [11] and 112 nM in assay [12].

Usually EC50 stands for the concentration that produces a half-maximal response. In general, Ki refers to a dissociation constant, usually derived from enzyme kinetics or from competition with a known ligand. Read a low Ki as a stronger hold on the target.
